Experimental data published in US5225528A, “Cyclic hexapeptide oxytocin antagonists” (priority 1990, dated 1993).
Numbered stars: 1 amine (or outer) side, 2 acyl side, 3 side chain; on linkers, the order of the positions; unused ones are H or OH. Square brackets hold non-standard residues; d marks the D form. Peptide text beside a SMILES is read from it. * marks the point of attachment. X2 = O=C(OCc1ccccc1)N1CCN([*:1])[C@H](C(=O)[*:2])C1; d1Nal = N[C@H](Cc1cccc2ccccc12)C(=O)O; d2Nal = N[C@H](Cc1ccc2ccccc2c1)C(=O)O; dHis(π-Me) = Cn1cncc1C[C@@H](N)C(=O)O; Hyp = O=C(O)[C@@H]1C[C@@H](O)CN1; Pip(4-aza) = O=C(O)[C@@H]1CNCCN1; dNMeF = CN[C@H](Cc1ccccc1)C(=O)O; dPip(4-aza) = O=C(O)[C@H]1CNCCN1; Cha = N[C@@H](CC1CCCCC1)C(=O)O; dCha = N[C@H](CC1CCCCC1)C(=O)O; dChg = N[C@@H](C(=O)O)C1CCCCC1; dPhg = N[C@@H](C(=O)O)c1ccccc1; Chg = N[C@H](C(=O)O)C1CCCCC1; Phg = N[C@H](C(=O)O)c1ccccc1; Pip = O=C(O)[C@@H]1CCCCN1; dPip = O=C(O)[C@H]1CCCCN1; NMeA = CN[C@@H](C)C(=O)O; dNMeA = CN[C@H](C)C(=O)O; Bn = c1ccc(C*)cc1

Target: T1, uterine OT receptors (Rattus norvegicus, UniProt P70536)
T1 construct: from tissue; host or cells: uterus of DES-treated rats, crude membranes
T1 sequence (P70536 1-388): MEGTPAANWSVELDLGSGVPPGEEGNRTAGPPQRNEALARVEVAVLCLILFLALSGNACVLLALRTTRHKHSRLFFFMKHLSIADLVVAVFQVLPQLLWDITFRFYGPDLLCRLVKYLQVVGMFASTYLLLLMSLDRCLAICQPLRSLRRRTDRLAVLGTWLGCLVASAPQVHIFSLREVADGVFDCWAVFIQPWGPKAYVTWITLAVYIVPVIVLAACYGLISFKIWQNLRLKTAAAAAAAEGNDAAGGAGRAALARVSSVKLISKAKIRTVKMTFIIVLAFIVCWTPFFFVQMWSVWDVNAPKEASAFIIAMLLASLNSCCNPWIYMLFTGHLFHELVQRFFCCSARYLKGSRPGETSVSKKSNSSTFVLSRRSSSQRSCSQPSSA
Assay: [^3 H]OT binding to uterine OT receptors, crude membrane preparation of uteri from DES-treated rats
Settings: for IC50: rat uterus membranes, 1 nM [^3 H]OT, read-out: Receptor Binding Results IC50 (nM) [^3 H]OT
Protocol: Competition studies were conducted at equilibrium (60 minutes; 22° C.) using 1 nM [^3 H]OT in the following assay buffer: 50 mM Tris-HCl, 5 mM MgCl2, and 0.1% BSA, pH 7.4.

[1] = 1 h, @ 1,000 (nM), read-out: [^3 H]OT: percent inhibition of radioligand at the given concentration

Molecule | IC50 [nM] | further results
CC[C@H](C)[C@@H]1NC(=O)[C@@H](CC2CCCCC2)NC(=O)[C@@H]2CCCN2C(=O)[C@@H](Cc2ccccc2)NC(=O)[C@@H]2CCCN2C(=O)[C@H]2CCCN2C1=O [Example 55] (cyclo([dCha]I[dP]P[dF]P)) | 2500 | –
C[C@@H](O)[C@@H]1NC(=O)[C@@H](Cc2ccccc2)NC(=O)[C@@H]2CCCN2C(=O)[C@@H](Cc2ccccc2)NC(=O)[C@@H]2CCCN2C(=O)[C@H]2CCCN2C1=O [Example 73, c-[D-Phenylalanyl-L-threoninyl-D-prolyl-L-prolyl-D-phenylalanyl-L-prolyl]] (cyclo([dF]P[dF]T[dP]P)) | > 10000 | –
CC[C@H](C)[C@@H]1NC(=O)[C@@H](Cc2ccc3ccccc3c2)NC(=O)[C@@H]2CCCN2C(=O)[C@@H](Cc2c[nH]cn2)NC(=O)[C@H]2CNCCN2C(=O)[C@H]2CCCCN2C1=O [Example 161, c-[D-2-Naphthylalanyl-L-isoleucyl-D-pipecolyl-D-piperazin-2-yl-D-histidyl-L-prolyl]] (cyclo(I[dPip][dPip(4-aza)][dH]P[d2Nal])) | 6.7 | –
CC[C@@H](C)[C@H]1NC(=O)[C@H](Cc2ccccc2)NC(=O)[C@H]2CCCN2C(=O)[C@H](Cc2ccccc2)NC(=O)[C@H]2CCCN2C(=O)[C@@H]2CCCN2C1=O [Example 60, c-[L-Phenylalanyl-D-isoleucyl-L-prolyl-D-prolyl-L-phenylalanyl-D-prolyl]] (cyclo(F[dI]P[dP]F[dP])) | > 10000 | –
CC[C@H](C)[C@@H]1NC(=O)[C@@H](Cc2ccccc2)NC(=O)[C@@H]2CCCN2C(=O)[C@@H](Cc2ccccc2)NC(=O)[C@H](C2CCCCC2)NC(=O)[C@@H](C2CCCCC2)NC1=O [Example 65] (cyclo([Chg][dF]P[dF]I[dChg])) | > 10000 | –
CC[C@H](C)[C@@H]1NC(=O)[C@@H](Cc2ccccc2)NC(=O)[C@@H]2CCCN2C(=O)[C@@H](Cc2ccccc2)NC(=O)[C@H](Cc2c[nH]cn2)NC(=O)[C@@H](Cc2c[nH]cn2)NC1=O [Example 69, c[D-Phenylalanyl-L-isoleucyl-D-histidinyl-L-histidinyl-D-phenylalanyl-L-prolyl]] (cyclo(H[dF]P[dF]I[dH])) | 10000 | –
CC[C@H](C)[C@@H]1NC(=O)[C@@H](Cc2ccccc2)NC(=O)[C@@H]2CCCN2C(=O)[C@@H](CSCc2ccccc2)NC(=O)[C@@H]2CCCN2C(=O)[C@H]2CCCN2C1=O [Example 59, c-[D-Phenylalanyl-L-isoleucyl-D-prolyl-L-prolyl-D-crsteinyl(Bzl)-L-prolyl]] (cyclo([dC](Bn)P[dF]I[dP]P)) | > 1000 | –
CC[C@H](C)[C@@H]1NC(=O)[C@@H](Cc2ccccc2)NC(=O)[C@@H]2CCCN2C(=O)[C@@H](Cc2ccccc2)NC(=O)[C@H](CC(N)=O)NC(=O)[C@H](CCC(N)=O)NC1=O [Example 100] (cyclo([dF]IQN[dF]P)) | 5080 | –
CC[C@H](C)[C@@H]1NC(=O)[C@@H](Cc2ccccc2)NC(=O)[C@@H]2CCCN2C(=O)[C@@H](Cc2ccccc2)NC(=O)[C@@H]2CCCN2C(=O)[C@H]2CCCN2C1=O [Example 53, c-[D-Phenylalanyl-L-isoleucyl-D-prolyl-L-prolyl-D-phenylalanyl-L-prolyl]] (cyclo([dF]P[dF]I[dP]P)) | 2600 | –
CC[C@H](C)[C@@H]1NC(=O)[C@@H](Cc2ccccc2)NC(=O)[C@@H]2CCCN2C(=O)[C@@H](Cc2ccccc2)NC(=O)[C@H](c2ccccc2)NC(=O)[C@@H](c2ccccc2)NC1=O [Example 70, c-[D-Phenylalanyl-L-isoleucyl-D-phenylglycinyl-L-phenylglycinyl-D-phenylalanyl-L-prolyl]] (cyclo(I[dPhg][Phg][dF]P[dF])) | > 10000 | –
CC[C@H](C)[C@@H]1NC(=O)[C@@H](Cc2ccccc2)NC(=O)[C@@H]2CCCN2C(=O)[C@@H](Cc2cncn2C)NC(=O)[C@@H]2CNCCN2C(=O)[C@H]2CCCCN2C1=O [Example 178, c-[D-Phenylalany-L-isoleucinyl-D-pipecolyl-L-piperazin-2-yl-D-(N^immethyl)histidinyl-L-prolyl]] (cyclo(I[dPip][Pip(4-aza)][dHis(π-Me)]P[dF])) | – | inhibition at 1 µM [1]: 77%
CC[C@H](C)[C@@H]1NC(=O)[C@@H](Cc2cccc3ccccc23)NC(=O)[C@@H]2CCCN2C(=O)[C@@H](Cc2c[nH]cn2)NC(=O)[C@@H]2CCCCN2C(=O)[C@H]2CCCCN2C1=O [Example 11, Cyclo[D-a-naphthalalanyl-L-isoleucyl-D-pipecolyl-L-pipecolyl-D-histidyl-L-prolyl]] (cyclo(I[dPip][Pip][dH]P[d1Nal])) | – | inhibition at 0.01 µM (1 h, @ 10 (nM), read-out: [^3 H]OT: percent inhibition of radioligand at the given concentration): 39%
CC[C@H](C)[C@@H]1NC(=O)[C@@H](Cc2ccccc2)NC(=O)[C@@H]2CCCN2C(=O)[C@@H](Cc2ccccc2)NC(=O)[C@H](C)N(C)C(=O)[C@@H](C)N(C)C1=O [Example 54, c-[D-Phenylalanyl-L-isoleucyl-N-methyl-D-alanyl-N-methyl-L-alanyl-D-phenylalanyl-L-prolyl]] (cyclo(I[dNMeA][NMeA][dF]P[dF])) | 3000 | –
C[C@@H](OCc1ccccc1)[C@@H]1NC(=O)[C@@H](Cc2ccccc2)NC(=O)[C@@H]2CCCN2C(=O)[C@@H](Cc2ccccc2)NC(=O)[C@@H]2CCCN2C(=O)[C@H]2CCCN2C1=O [Example 72, c-[D-Phenylalanyl-L-(O-benzyl)-threoninyl-D-prolyl-L-prolyl-D-phenylalanyl-L-prolyl]] (cyclo([dF]P[dF]T(Bn)[dP]P)) | > 10000 | –
CC[C@H](C)[C@@H]1NC(=O)[C@@H](Cc2ccccc2)NC(=O)[C@@H]2CCCN2C(=O)[C@@H]([C@H](C)OCc2ccccc2)NC(=O)[C@@H]2CCCN2C(=O)[C@H]2CCCN2C1=O [Example 61, c-[D-Phenylalanyl-L-isoleucyl-D-prolyl-L-prolyl-D-threoninyl(Bzl)-L-prolyl]] (cyclo([dT](Bn)P[dF]I[dP]P)) | > 10000 | –
CC[C@H](C)[C@@H]1NC(=O)[C@@H](Cc2ccccc2)NC(=O)[C@@H]2CCCN2C(=O)[C@@H](Cc2ccccc2)N(C)C(=O)[C@@H]2CCCN2C(=O)[C@H]2CCCN2C1=O [Example 52, c-[D-Phenylalanyl-L-isoleucyl-D-prolyl-L-prolyl-N-methyl-D-phenylalanyl-L-prolyl]] (cyclo([dNMeF]P[dF]I[dP]P)) | 3400 | –
CC[C@H](C)[C@@H]1NC(=O)[C@@H](Cc2ccccc2)NC(=O)[C@@H]2CCCN2C(=O)[C@@H]([C@H](C)O)NC(=O)[C@@H]2CCCN2C(=O)[C@H]2CCCN2C1=O [Example 62, c-[D-Phenylalanyl-L-isoleucyl-D-prolyl-L-prolyl-D-threoninyl-L-prolyl]] (cyclo([dT]P[dF]I[dP]P)) | > 1000 | –
CC[C@H](C)[C@@H]1NC(=O)[C@@H](Cc2ccccc2)NC(=O)CNC(=O)[C@@H](CCC(N)=O)NC(=O)[C@@H]2CCCN2C(=O)[C@H]2CCCN2C1=O [Example 57] (cyclo([dF]I[dP]P[dQ]G)) | > 10000 | –
c-[D-Phenylalanyl-L-isoleucinyl-D-pipecolyl-D-piperazin-2-yl(4-Cbz)-L-(BOM)histidyl-L-prolyl] [Example 93] | – | [^3 H]OT: percent inhibition of radioligand at the given concentration (@ 1,000 (nM)): 42%
CC[C@H](C)[C@@H]1NC(=O)[C@@H](Cc2ccccc2)NC(=O)[C@@H]2CCCN2C(=O)[C@@H](Cc2ccccc2)NC(=O)[C@@H]2C[C@@H](O)CN2C(=O)[C@H]2CCCN2C1=O [Example 71, c-[D-Phenylalanyl-L-isoleucyl-D-prolyl-L-trans-hydroxyprolyl-D-phenylalanyl-L-prolyl]] (cyclo([Hyp][dF]P[dF]I[dP])) | > 10000 | –
O=C1N[C@@H](CC2CCCCC2)C(=O)N2CCC[C@@H]2C(=O)N2CCC[C@H]2C(=O)N[C@H](Cc2ccccc2)C(=O)N2CCC[C@H]2C(=O)N[C@@H]1Cc1ccccc1 [Example 56, c-[D-Phenylalanyl-L-cyclohexylalanyl-D-prolyl-L-prolyl-D-phenylalanyl-L-prolyl]] (cyclo([dF]P[dF][Cha][dP]P)) | > 10000 | –
O=C1N[C@H](Cc2ccccc2)C(=O)N2CCC[C@H]2C(=O)N[C@H](Cc2ccccc2)C(=O)N2CCC[C@H]2C(=O)N2CCC[C@@H]2C(=O)N2CCC[C@@H]12 [Example 64, c-[D-Phenylalanyl-L-prolyl-D-prolyl-L-prolyl-D-phenylalanyl-L-prolyl]] (cyclo([dF]P[dF]P[dP]P)) | > 10000 | –
O=C1N[C@@H](c2ccccc2)C(=O)N2CCC[C@@H]2C(=O)N2CCC[C@H]2C(=O)N[C@H](Cc2ccccc2)C(=O)N2CCC[C@H]2C(=O)N[C@@H]1Cc1ccccc1 [Example 63, c-[D-Phenylalanyl-L-phenylglycyl-D-prolyl-L-prolyl-D-phenylalanyl-L-prolyl]] (cyclo([dF]P[dF][Phg][dP]P)) | > 10000 | –
CC[C@H](C)[C@@H]1NC(=O)[C@@H](Cc2ccccc2)NC(=O)[C@@H]2CCCN2C(=O)[C@@H](Cc2ccccc2)NC(=O)[C@@H]2CN(C(=O)OCc3ccccc3)CCN2C(=O)[C@H]2CCCN2C1=O [Example 163, c-[D-Phenylalanyl-L-isoleucinyl-D-prolyl-L-piperazin-2-yl(4-Cbz)-D-phenylalanyl-L-prolyl]] (cyclo([dF]I[dP][X2][dF]P)) | – | inhibition at 1 µM [1]: 49%
CC[C@H](C)[C@@H]1NC(=O)[C@@H](Cc2ccccc2)NC(=O)[C@@H]2CCCN2C(=O)[C@@H](Cc2ccccc2)NC(=O)[C@H](C)NC(=O)[C@@H](C)NC1=O [Example 51, c-[D-Phenylalanyl-L-isoleucyl-D-alanyl-L-alanyl-D-phenylalanyl-L-prolyl]] (cyclo(A[dF]P[dF]I[dA])) | > 10000 | –
